Activity calls are given as the source filed them.
Tests used:
[1] = A High Throughput Confirmatory Assay used to Identify Novel Compounds that Inhibit Mycobacterium Tuberculosis in the absence of Glycerol.; assay type: functional
[2] = molecular target: T1, Rac GTPase-activating protein 1 (Homo sapiens, UniProt Q9H0H5); experiment: blockers of MgcRacGAP-driven Rac1 GTP hydrolysis – biochemical, ADP Hunter fluorescence, primary and confirmatory, confirmation (AID 624330); assay type: functional
T1 sequence (Q9H0H5 whole entry): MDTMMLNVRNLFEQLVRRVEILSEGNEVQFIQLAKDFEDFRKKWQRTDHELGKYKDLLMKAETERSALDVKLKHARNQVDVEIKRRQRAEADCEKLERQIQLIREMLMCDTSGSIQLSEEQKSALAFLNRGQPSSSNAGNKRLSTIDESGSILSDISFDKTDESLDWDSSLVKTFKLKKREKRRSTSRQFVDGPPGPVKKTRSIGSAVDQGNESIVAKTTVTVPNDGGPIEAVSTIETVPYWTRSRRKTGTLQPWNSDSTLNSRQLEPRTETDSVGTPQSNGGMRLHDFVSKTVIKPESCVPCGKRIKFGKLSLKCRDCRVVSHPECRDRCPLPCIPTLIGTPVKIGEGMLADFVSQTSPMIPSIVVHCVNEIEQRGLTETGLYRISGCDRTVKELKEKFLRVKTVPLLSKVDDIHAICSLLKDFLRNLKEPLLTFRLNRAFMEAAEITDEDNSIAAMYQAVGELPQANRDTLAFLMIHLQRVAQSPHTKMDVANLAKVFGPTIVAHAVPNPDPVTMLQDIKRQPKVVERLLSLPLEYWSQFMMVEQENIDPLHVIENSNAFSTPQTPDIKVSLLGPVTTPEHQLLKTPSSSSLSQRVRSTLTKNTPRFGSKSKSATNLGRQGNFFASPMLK

Mucolipin-3 = Mucolipin-3 (Homo sapiens, UniProt Q8TDD5); experiment: Dose response cell-based high-throughput screening assay for agonists of the transient receptor potential channel ML3 (TRPML3). [Related pubchem assays: 1526, 1424, 1448 ]; assay type: functional
Ion channel NompC = Ion channel NompC (Danio rerio, UniProt Q7T1G6); experiment: Fluorescence counterscreen assay for TRPML3 agonists: dose response cell-based high-throughput screening assay to identify agonists of the transient receptor potential channel N1 (TRPN1). [Related pubchem assays: 1526, 1424, 1448 ]; assay type: functional
[3] = molecular target: T2, Heat shock factor protein 1 (Mus musculus, UniProt P38532); experiment: enhancement of HSF1-driven luciferase signal – cell-based, NIH3T3, luminescence, dose retest, confirmation (AID 435004); assay type: functional;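 also: stress induced by proteasome inhibitor MG132 added 30 min after compound; luciferase reporter driven by HSF1 response element in NIH3T3 cells; actives raise luminescence as potentiators of the MG132 stress response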
T2 sequence (P38532 whole entry): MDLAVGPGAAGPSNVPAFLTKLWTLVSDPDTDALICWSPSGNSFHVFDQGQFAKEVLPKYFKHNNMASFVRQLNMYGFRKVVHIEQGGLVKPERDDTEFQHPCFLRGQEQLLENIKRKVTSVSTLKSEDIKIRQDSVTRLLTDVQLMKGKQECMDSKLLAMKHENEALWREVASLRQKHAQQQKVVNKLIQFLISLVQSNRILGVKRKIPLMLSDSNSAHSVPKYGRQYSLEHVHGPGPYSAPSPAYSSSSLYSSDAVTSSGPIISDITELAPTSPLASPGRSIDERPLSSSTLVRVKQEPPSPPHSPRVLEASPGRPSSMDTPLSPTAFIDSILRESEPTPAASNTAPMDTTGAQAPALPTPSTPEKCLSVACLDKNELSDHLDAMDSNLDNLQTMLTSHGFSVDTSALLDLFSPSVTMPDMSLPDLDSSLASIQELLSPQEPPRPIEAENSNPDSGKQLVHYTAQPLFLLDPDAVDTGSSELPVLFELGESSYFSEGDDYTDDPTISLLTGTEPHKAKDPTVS

[4] = NIH3T3 cell viability loss – ATP luminescence, mouse fibroblasts, counter-screen, dose response (AID 2010); assay type: functional, cell-based;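 also: cells exposed to compound for about 90 hours before reading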
[5] = Trypanosoma cruzi growth suppression in host cells – NIH3T3 host cells, beta-gal luminescence, confirmation (AID 2044); assay type: functional, cell-based;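 also: intracellular parasites grown in NIH/3T3 mouse fibroblasts as host cells; luminescent beta-galactosidase reporter signal from transgenic T. cruzi replicating inside host cells; inhibitors lower the luminescence signal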
[6] = M. tuberculosis H37Rv growth inhibitors, H37Rv strain (AID 1626); assay type: functional
[7] = molecular target: T3, Neuropeptide Y receptor type 2 (Homo sapiens, UniProt P49146); experiment: IC50 for human NPY-Y2 blockade – cell-based, counter-screen for NPY-Y1 antagonist project, dose response (AID 1278); assay type: functional
T3 sequence (P49146 whole entry): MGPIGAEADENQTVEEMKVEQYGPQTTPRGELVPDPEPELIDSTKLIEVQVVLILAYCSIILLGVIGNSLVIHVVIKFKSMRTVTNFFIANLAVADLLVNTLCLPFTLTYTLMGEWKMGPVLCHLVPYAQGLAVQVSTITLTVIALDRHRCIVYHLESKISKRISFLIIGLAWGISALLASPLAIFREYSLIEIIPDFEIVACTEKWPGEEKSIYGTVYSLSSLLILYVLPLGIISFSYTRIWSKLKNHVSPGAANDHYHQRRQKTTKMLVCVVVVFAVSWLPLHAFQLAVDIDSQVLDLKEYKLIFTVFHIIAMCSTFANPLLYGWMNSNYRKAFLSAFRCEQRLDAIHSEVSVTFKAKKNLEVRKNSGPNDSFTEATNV

[8] = molecular target: T4, Neuropeptide Y receptor type 1 (Homo sapiens, UniProt P25929); experiment: IC50 of human NPY-Y1 blockers – cell-based, dose response (AID 1277); assay type: functional
T4 sequence (P25929 whole entry): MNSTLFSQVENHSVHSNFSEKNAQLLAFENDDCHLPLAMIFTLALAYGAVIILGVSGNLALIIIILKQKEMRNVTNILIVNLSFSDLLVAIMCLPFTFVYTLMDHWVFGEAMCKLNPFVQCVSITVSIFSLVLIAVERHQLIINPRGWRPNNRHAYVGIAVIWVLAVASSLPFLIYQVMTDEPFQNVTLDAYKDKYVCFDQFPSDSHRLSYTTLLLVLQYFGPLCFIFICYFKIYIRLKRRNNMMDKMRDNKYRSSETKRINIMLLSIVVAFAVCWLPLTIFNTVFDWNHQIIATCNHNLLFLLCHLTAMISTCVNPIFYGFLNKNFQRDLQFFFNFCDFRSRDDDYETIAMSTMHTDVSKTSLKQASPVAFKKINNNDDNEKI

[9] = molecular target: T5, Calpain-2 catalytic subunit (Sus scrofa, UniProt P43367); experiment: m-calpain protease blockers, concentration series – biochemical, fluorogenic peptide substrate, dose response (AID 1420); assay type: functional
T5 sequence (P43367 whole entry): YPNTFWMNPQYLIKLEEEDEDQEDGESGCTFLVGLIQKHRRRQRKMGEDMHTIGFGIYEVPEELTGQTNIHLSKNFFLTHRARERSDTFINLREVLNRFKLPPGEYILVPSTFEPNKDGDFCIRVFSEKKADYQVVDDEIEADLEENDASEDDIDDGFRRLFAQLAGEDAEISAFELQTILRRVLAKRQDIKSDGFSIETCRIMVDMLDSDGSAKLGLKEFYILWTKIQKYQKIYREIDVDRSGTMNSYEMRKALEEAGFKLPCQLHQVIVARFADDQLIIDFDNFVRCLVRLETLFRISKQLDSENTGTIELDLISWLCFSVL

[10] = molecular target: Potassium voltage-gated channel subfamily KQT member 2 (Rattus norvegicus, UniProt O88943, W236L); experiment: potentiation of rat KCNQ2 current – cell-based, automated electrophysiology, mechanism study for KCNQ2 potentiator project, dose response (AID 2603); assay type: functional
[11] = Luminescence Cell-Based Dose Confirmation HTS to Identify Inhibitors of Platelet Dense Granule Release. [Related pubchem assays: 1663 (Primary HTS), 1678 (Summary of Project)]; assay type: functional
[12] = molecular target: Luciferin 4-monooxygenase (Photinus pyralis, UniProt P08659); experiment: inhibition of purified Photinus pyralis luciferase – biochemical, luminescence, dose response (AID 1891)
[13] = molecular target: Epstein-Barr nuclear antigen 1 (Epstein-Barr virus (strain B95-8) (HHV-4) (Human herpesvirus 4), UniProt P03211); experiment: inhibition of EBV nuclear antigen 1 DNA binding – biochemical, fluorescence polarization, 1536-well, dose response (AID 2381); parameters: species or system human gammaherpesvirus 4;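 also: fluorescence polarization of a Cy5 DNA probe bound by EBNA-1 protein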
[14] = molecular target: Lytic switch protein BZLF1 (Epstein-Barr virus (strain B95-8) (HHV-4) (Human herpesvirus 4), UniProt P03206); experiment: inhibition of BZLF1 ZTA DNA binding – biochemical, fluorescence polarization, Epstein-Barr virus, 1536-well, counter-screen for EBNA-1 inhibitor project, dose response (AID 2377); parameters: species or system human gammaherpesvirus 4;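 also: fluorescence polarization of Cy5-labelled ZRE DNA probe bound by purified Zta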
[15] = antiviral protection against BTV-induced cell death – arbovirus, BSR cells, confirmation (AID 1250); assay type: functional;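 also: protection from viral cytopathic effect measured as cell viability by ATP luminescence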
HEK293 [16] = experiment: cells; assay type: functional, cell-based; conditions: Homo sapiens
[17] = viability loss in HepG2 hepatoma cells – cell-based, ATP luminescence, cherry-pick, activator set 2, cytotoxicity control, dose response (AID 1053143); assay type: functional
HEK293 [18] = experiment: NOD2 signaling inhibitors in MDP-stimulated cells, cell-based, uHTS, luminescence (AID 2001); assay type: functional; conditions: Homo sapiens
HEK293 [19] = experiment: inhibition of NOD1-driven NF-kB reporter – cell-based, luminescence, uHTS, primary screen (AID 1578); assay type: functional; conditions: Homo sapiens
[20] = Counterscreen for AddAB inhibitors: absorbance-based bacterial cell-based high throughput dose response assay for inhibitors of bacterial viability. [Related pubchem assays (depositor defined):AID435030, AID449728, AID449731, AID488942, AID488955, AID488956]; assay type: functional
[21] = molecular target: Nucleotide-binding oligomerization domain-containing protein 2 (Homo sapiens, UniProt Q9HC29); experiment: inhibition of NOD2-driven NF-kB reporter – cell-based, luminescence, uHTS, HEK293 (AID 1566); assay type: functional
Nonstructural protein 1 = Nonstructural protein 1 (Influenza A virus, UniProt Q194T2); assay type: functional, Influenza A virus (A/California/07/2009(H1N1))
HEK293 [22] = experiment: cells; assay type: functional, cell-based; conditions: Homo sapiens; remark: listed apart in the source
HEK293 [23] = experiment: cells; assay type: functional, cell-based; conditions: Homo sapiens; remark: listed apart in the source
[24] = Luminescence-based counterscreen assay for KLF5 inhibitors: dose response cell-based high throughput screening assay to identify cytotoxic compounds using the IEC-6 intestinal epithelial cell line. [Related pubchem assays: 1700 (Primary screen.), 1834 (Confirmation screen.), 1858 (Summary AID.), 1905 (Counterscreen.)]; assay type: functional
INS1 = experiment: INS-1E survival protection against cytokine death – cell-based, luminescence, retest, dose response (AID 449756); assay type: functional; conditions: Rattus norvegicus;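 also: cell death triggered by IL-1 beta plus TNF-alpha plus IFN-gamma mixture; protective hits raise ATP signal compared with cytokine alone wells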
Exodeoxyribonuclease V = Exodeoxyribonuclease V (Escherichia coli (strain K12), UniProt P04993+P07648+P08394); experiment: RecBCD inhibition via phage-restricted bacterial growth – absorbance, V66 E. coli, mutant T4 phage, counter-screen for AddAB inhibitor project, dose response (AID 492957); assay type: functional, cell-based, Escherichia coli str. K-12 substr. MG1655
Chain of Exodeoxyribonuclease V (P04993 whole entry): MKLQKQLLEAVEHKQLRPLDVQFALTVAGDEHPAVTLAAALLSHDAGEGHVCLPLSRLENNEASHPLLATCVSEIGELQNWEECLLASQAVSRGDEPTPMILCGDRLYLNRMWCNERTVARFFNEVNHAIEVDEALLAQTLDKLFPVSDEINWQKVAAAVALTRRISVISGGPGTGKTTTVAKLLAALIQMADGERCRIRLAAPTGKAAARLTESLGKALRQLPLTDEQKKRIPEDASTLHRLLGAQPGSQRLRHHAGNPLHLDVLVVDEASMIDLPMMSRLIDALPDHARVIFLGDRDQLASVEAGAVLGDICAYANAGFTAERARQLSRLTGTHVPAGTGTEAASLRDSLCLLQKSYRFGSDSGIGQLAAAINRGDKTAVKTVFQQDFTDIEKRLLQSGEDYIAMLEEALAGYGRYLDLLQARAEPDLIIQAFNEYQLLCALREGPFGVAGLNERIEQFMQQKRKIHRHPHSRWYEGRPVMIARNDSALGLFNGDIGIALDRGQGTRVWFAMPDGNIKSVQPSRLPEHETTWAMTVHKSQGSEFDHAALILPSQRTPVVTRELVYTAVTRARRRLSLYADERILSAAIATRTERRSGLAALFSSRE
Chain of Exodeoxyribonuclease V (P07648 whole entry): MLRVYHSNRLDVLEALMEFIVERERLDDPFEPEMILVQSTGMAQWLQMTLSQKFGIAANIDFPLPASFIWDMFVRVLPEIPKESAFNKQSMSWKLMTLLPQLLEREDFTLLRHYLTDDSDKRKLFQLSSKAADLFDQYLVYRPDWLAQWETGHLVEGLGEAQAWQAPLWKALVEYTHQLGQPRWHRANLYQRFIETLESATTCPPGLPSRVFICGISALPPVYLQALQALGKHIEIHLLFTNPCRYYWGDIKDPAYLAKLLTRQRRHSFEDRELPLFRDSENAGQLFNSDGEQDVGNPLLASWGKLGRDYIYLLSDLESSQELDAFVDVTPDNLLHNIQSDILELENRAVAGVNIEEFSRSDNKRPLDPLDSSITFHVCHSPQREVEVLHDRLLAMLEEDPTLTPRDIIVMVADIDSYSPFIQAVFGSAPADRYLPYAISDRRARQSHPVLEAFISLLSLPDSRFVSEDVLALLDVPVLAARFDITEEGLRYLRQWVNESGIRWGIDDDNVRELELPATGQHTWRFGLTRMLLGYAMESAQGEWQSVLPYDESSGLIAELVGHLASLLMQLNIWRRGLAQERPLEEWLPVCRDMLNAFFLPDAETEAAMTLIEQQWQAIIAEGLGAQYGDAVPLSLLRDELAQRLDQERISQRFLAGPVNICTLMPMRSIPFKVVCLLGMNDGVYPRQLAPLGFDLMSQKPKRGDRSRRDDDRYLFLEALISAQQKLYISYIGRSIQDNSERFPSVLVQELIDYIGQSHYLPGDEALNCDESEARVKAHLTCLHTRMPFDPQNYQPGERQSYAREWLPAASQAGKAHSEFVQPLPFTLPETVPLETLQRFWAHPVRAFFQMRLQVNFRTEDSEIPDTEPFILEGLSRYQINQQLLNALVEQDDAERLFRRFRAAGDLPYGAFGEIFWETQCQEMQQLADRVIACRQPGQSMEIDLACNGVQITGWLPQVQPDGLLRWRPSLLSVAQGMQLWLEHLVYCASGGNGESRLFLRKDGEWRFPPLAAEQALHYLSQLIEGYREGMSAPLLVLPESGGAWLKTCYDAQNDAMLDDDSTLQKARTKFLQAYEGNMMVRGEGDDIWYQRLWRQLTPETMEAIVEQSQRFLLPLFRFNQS
Chain of Exodeoxyribonuclease V (P08394 whole entry): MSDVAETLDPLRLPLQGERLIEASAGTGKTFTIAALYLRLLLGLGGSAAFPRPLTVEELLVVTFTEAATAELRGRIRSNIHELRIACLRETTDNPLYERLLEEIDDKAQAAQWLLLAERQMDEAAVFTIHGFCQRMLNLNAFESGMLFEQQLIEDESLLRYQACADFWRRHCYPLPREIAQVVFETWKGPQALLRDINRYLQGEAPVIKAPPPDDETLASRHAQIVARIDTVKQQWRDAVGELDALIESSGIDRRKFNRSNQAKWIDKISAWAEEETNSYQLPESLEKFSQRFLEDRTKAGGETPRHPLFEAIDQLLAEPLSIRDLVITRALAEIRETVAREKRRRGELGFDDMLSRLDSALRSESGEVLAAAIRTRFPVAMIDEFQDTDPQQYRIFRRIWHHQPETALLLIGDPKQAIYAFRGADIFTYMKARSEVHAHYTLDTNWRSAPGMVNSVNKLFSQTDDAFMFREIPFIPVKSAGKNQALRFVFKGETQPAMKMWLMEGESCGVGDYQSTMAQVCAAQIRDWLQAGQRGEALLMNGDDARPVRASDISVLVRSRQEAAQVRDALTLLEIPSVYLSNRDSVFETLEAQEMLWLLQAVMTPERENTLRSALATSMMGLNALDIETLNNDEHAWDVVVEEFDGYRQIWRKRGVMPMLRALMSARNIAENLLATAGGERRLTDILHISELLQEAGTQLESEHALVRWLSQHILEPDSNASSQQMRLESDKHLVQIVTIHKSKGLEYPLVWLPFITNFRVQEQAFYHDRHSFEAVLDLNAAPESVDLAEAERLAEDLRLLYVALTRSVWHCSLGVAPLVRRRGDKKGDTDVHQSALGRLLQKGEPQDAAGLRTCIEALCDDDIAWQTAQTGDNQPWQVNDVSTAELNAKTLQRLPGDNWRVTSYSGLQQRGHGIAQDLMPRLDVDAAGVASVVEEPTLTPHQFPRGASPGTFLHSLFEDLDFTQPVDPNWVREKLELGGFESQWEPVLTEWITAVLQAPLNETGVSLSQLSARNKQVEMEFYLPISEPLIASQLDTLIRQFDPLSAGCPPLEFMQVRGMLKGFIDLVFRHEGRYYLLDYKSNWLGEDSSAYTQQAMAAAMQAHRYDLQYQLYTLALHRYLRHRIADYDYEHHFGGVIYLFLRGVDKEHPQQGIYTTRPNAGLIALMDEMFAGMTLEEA

Chain of Ion channel NompC (Q7T1G6 whole entry): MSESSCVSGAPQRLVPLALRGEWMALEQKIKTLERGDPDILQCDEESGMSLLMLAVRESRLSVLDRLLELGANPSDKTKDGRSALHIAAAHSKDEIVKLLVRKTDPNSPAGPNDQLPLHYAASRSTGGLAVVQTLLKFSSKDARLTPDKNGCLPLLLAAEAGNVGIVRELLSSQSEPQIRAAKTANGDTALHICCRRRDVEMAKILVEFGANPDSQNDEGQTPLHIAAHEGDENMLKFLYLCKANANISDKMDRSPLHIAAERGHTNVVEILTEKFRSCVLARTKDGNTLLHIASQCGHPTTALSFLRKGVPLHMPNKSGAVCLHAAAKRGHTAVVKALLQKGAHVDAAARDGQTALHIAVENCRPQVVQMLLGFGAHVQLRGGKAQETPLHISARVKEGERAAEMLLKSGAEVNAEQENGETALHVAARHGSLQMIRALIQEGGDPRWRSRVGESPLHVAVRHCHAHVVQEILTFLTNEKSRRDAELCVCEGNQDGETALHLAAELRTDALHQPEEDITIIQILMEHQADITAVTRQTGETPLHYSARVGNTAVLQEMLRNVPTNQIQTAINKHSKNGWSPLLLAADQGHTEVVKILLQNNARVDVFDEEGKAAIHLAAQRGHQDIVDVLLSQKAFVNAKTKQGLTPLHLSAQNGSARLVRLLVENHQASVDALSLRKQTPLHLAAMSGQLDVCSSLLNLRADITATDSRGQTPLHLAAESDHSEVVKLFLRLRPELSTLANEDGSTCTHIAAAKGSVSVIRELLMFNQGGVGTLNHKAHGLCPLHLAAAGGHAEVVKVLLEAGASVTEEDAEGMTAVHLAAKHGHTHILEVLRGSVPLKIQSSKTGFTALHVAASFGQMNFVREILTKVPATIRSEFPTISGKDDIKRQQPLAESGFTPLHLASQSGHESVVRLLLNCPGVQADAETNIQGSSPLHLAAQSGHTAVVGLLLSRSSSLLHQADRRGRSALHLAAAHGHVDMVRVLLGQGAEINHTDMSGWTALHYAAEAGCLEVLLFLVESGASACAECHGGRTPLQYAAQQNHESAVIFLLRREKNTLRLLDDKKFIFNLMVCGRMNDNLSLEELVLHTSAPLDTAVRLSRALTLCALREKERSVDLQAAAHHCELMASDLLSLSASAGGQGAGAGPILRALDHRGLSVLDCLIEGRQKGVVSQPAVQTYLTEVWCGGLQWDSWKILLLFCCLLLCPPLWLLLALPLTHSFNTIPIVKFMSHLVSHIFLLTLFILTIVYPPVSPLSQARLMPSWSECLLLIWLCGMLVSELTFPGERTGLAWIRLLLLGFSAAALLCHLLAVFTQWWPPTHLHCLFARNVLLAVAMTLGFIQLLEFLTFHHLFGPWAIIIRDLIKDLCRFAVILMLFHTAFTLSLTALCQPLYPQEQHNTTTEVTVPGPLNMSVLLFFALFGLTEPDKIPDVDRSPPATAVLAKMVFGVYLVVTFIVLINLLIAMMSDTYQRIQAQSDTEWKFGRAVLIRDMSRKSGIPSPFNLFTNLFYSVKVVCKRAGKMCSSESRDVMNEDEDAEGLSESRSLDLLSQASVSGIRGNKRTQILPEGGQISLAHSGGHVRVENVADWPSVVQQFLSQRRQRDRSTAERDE
Chain of Nonstructural protein 1 (Q194T2 whole entry): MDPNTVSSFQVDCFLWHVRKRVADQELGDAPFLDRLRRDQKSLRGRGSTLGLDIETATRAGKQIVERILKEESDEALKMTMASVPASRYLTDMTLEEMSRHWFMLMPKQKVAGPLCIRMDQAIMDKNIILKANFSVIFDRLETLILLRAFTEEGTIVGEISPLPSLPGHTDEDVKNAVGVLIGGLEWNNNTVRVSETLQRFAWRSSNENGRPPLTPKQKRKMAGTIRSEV
Chain of Lytic switch protein BZLF1 (P03206 whole entry): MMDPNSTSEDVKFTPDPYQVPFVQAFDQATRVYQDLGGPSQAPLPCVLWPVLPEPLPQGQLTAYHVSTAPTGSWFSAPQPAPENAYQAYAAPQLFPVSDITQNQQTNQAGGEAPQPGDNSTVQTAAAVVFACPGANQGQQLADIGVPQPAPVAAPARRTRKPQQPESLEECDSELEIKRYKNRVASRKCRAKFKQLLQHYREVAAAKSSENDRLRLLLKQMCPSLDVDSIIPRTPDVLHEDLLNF

Q: What does the source list for `O=C(NC1CCN(C(=O)N2c3ccccc3Sc3ccccc32)CC1)c1ccccc1F`?
A: IC50 [1]: > 100 µM (active); IC50 [2]: 115 µM (active)

Q: Which results are given for `O=C(Nc1c(S(=O)(=O)c2ccc(Cl)cc2)csc1Br)c1ccccc1Cl`?
A: EC50 (Mucolipin-3): > 3.32 µM (active); EC50 (Ion channel NompC): > 29.9 µM (not active); EC50 [3]: > 260 µM (inactive)

Q: For `CCc1ccccc1NC(=O)c1ccc([N+](=O)[O-])s1`, which EC50 [4] is on record?
A: Its EC50 is > 30 µM (not active).

Q: What about the EC50 [5] of the same compound?
A: The EC50 was 0.471 µM (active).

Q: And the IC50 [6]?
A: The IC50 was > 100 µM (active).

Q: For `COc1ccc(N(C)S(=O)(=O)c2cccc(C(=O)NCC3CCCCC3)c2)cc1`, which EC50 [4] is on record?
A: Its EC50 is > 30 µM (not active).

Q: And the EC50 [5]?
A: The EC50 was > 30 µM (not active).

Q: And the IC50 [7]?
A: The IC50 was > 35 µM (not active).

Q: And the IC50 [8]?
A: Its IC50 is > 35 µM (not active).

Q: What about the IC50 [9] of the same compound?
A: The IC50 was 14.1 µM (not active).

Q: With `Cc1cc(Cl)c(S(=O)(=O)N2CCN(c3ccccn3)CC2)cc1OCC(=O)NC1CCCCC1` as the compound, how does the EC50 [10] read?
A: The EC50 was 5.34 µM (active).

Q: What about the EC50 [11] of the same compound?
A: The EC50 was > 112 µM (not active).

Q: What about the EC50 [12] of the same compound?
A: Its EC50 is 77.1 µM (active).

Q: With `CCOc1ccc(NC(=O)CCC(=O)NNC(=O)COc2ccc(C)cc2Br)cc1` as the compound, how does the IC50 [13] read?
A: The IC50 was 5.52 µM (active).

Q: What about the IC50 [14] of the same compound?
A: Its IC50 is > 111 µM (not active).

Q: With `COc1cccc(-c2nc(SCC(=O)Nc3nc(-c4ccccc4)c(C)s3)nc(O)c2C#N)c1` as the compound, how does the IC50 [15] read?
A: Its IC50 is 23.4 µM (active).

Q: For `Oc1cccc(/C=N/Nc2ccc(Cl)nn2)c1O`, which IC50 (HEK293 [16]) is on record?
A: Its IC50 is 17.5 µM (active).

Q: What about the AC50 [17] of the same compound?
A: Its AC50 is 20.4 µM (active).

Q: And the IC50 (HEK293 [18])?
A: Its IC50 is > 20 µM (inactive).

Q: What about the EC50 (HEK293 [19]) of the same compound?
A: Its EC50 is > 20 µM (inactive).

Q: What about the IC50 [20] of the same compound?
A: Its IC50 is > 119 µM (inactive).

Q: What about the EC50 [21] of the same compound?
A: The EC50 was > 20 µM (inactive).

Q: And the IC50 (Nonstructural protein 1)?
A: Its IC50 is 2.23 µM (active).

Q: And the IC50 (HEK293 [22])?
A: The IC50 was > 20 µM (inactive).

Q: What about the IC50 (HEK293 [23]) of the same compound?
A: Its IC50 is > 20 µM (inactive).

Q: And the IC50 [24]?
A: Its IC50 is 7.91 µM (active).

Q: And the AC50 (INS1)?
A: Its AC50 is 1.76 µM (active).

Q: What about the IC50 (Exodeoxyribonuclease V) of the same compound?
A: The IC50 was > 119 µM (inactive).

— ChEMBL document CHEMBL1201862, “PubChem BioAssay data set” (2004)
